Source: patent publication US8231891B2, “Implantable drug depot for weight control” (Warsaw Orthopedic, Inc., priority 2009, dated 2012)

Assays:
[1] = long term use of the drug; cited from earlier work
[2] = Weight gain of rats receiving fluocinolone by daily subcutaneous injection; assay type: in vivo, Wistar rats; conditions: FIG. 39; systemic subcutaneous injection, 25 ug/kg daily for 22 days
Procedure: Forty Wistar rats were utilized in this study. The forty rats were divided into 4 groups. Group 1 rats (10 in total) each received fluocinolone acetonide via systemic subcutaneous injection at a dosage of 0.5 ug/kg daily. Group 2 rats (10 in total) each received fluocinolone acetonide via systemic subcutaneous injection at a dosage of 5 ug/kg daily. Group 3 rats (10 in total) each received fluocinolone acetonide via systemic subcutaneous injection at a dosage of 25 ug/kg daily. Group 4 rats (10 in total) were the control in this study and received saline injections.

SMILES | average weight loss [1] | body weight increase compared to control rats (saline) [2]
Cc1c(C(=O)NN2CCCCC2)nn(-c2ccc(Cl)cc2Cl)c1-c1ccc(Cl)cc1 [Rimonabant] | 10.4 lbs | 
CCCCCCCCCCC[C@@H](C[C@@H]1OC(=O)[C@H]1CCCCCC)OC(=O)[C@H](CC(C)C)NC=O [Orlistat] | 6.4 lbs | 
CC1(C)O[C@@H]2C[C@H]3[C@@H]4C[C@H](F)C5=CC(=O)C=C[C@]5(C)[C@@]4(F)[C@@H](O)C[C@]3(C)[C@]2(C(=O)CO)O1 [fluocinolone acetonide, 6α-,9α-Difluoro-16 α-hydroxyprednisolone 16,17-acetonide] |  | did not exhibit as much body weight increase as control rats
CC(C)CC(N(C)C)C1(c2ccc(Cl)cc2)CCC1 (stereo not shown) [Sibutramine] | 9.3 lbs | 
